{"source": "paper PMC5218480", "about": "(PLoS ONE, 2017)", "system": "MV-4-11 cells", "test": "Gene expression microarray analysis (Affymetrix PrimeView) and GSEA", "type": "cell-based, human", "design": "RFU PODN (11730768_x_at) / Fold change /veh PODN (11730768_x_at) / RFU LINC00158 (11744669_a_at) / Fold change /veh LINC00158 (11744669_a_at) / RFU DUSP10 (11751237_a_at) / Fold change /veh DUSP10 (11751237_a_at) / RFU ID3 (11757404_x_at) / Fold change /veh ID3 (11757404_x_at) / RFU PLEKHG5 (11737974_s_at) / Fold change /veh PLEKHG5 (11737974_s_at) / RFU LRRC4B (11730491_at) / Fold change /veh LRRC4B (11730491_at) / RFU GIMAP4 (11747438_a_at) / Fold change /veh GIMAP4 (11747438_a_at) / RFU KRT8 (11758183_x_at) / Fold change /veh KRT8 (11758183_x_at) / RFU CNN1 (11734310_a_at) / Fold change /veh CNN1 (11734310_a_at) / RFU VPS37D (11726825_at) / Fold change /veh VPS37D (11726825_at) / RFU C10orf10 (11716522_x_at) / Fold change /veh C10orf10 (11716522_x_at) / RFU KIR2DL2 /// KIR2DL4 /// KIR2DL5A /// KIR2DL5B /// KIR2DS1 /// KIR2DS2 /// KIR2DS3 /// KIR2DS4 /// KIR3DL3 /// KIR3DL3 /// KIR3DS1 (11738374_at) / Fold change /veh KIR2DL2 /// KIR2DL4 /// KIR2DL5A /// KIR2DL5B /// KIR2DS1 /// KIR2DS2 /// KIR2DS3 /// KIR2DS4 /// KIR3DL3 /// KIR3DL3 /// KIR3DS1 (11738374_at) / RFU C1QL1 (11718748_at) / Fold change /veh C1QL1 (11718748_at) / RFU TMPRSS4 (11747572_a_at) / Fold change /veh TMPRSS4 (11747572_a_at) / RFU HAMP (11756126_x_at) / Fold change /veh HAMP (11756126_x_at) / RFU RNFT2 (11725882_a_at) / Fold change /veh RNFT2 (11725882_a_at) / RFU NR4A2 (11747474_a_at) / Fold change /veh NR4A2 (11747474_a_at) / RFU ABCC12 (11746883_a_at) / Fold change /veh ABCC12 (11746883_a_at) / RFU TMEM136 (11760407_x_at) / Fold change /veh TMEM136 (11760407_x_at) / RFU CLDN22 /// WWC2 (11732394_at) / Fold change /veh CLDN22 /// WWC2 (11732394_at) / RFU HLA-DPB1 (11760878_x_at) / Fold change /veh HLA-DPB1 (11760878_x_at) / RFU SPINT1 (11716480_a_at) / Fold change /veh SPINT1 (11716480_a_at) / RFU GAP43 (11754022_s_at) / Fold change /veh GAP43 (11754022_s_at) / RFU A4GNT (11735810_at) / Fold change /veh A4GNT (11735810_at) / RFU PRB3 (11715151_x_at) / Fold change /veh PRB3 (11715151_x_at) / RFU TUBB4B (11761932_at) / Fold change /veh TUBB4B (11761932_at) / RFU CAPN14 (11732068_a_at) / Fold change /veh CAPN14 (11732068_a_at) / RFU TMCC2 (11721928_a_at) / Fold change /veh TMCC2 (11721928_a_at) / RFU IRGQ (11745062_a_at) / Fold change /veh IRGQ (11745062_a_at) / RFU FAM174B (11720279_a_at) / Fold change /veh FAM174B (11720279_a_at) / RFU TMPRSS4 (11748680_a_at) / Fold change /veh TMPRSS4 (11748680_a_at) / RFU FAM212B (11763350_a_at) / Fold change /veh FAM212B (11763350_a_at) / RFU PLEKHG5 (11743358_a_at) / Fold change /veh PLEKHG5 (11743358_a_at) / RFU ZSCAN30 (11745921_a_at) / Fold change /veh ZSCAN30 (11745921_a_at) / RFU CMKLR1 (11741424_a_at) / Fold change /veh CMKLR1 (11741424_a_at) / RFU LOC101060620 /// MAPK8IP1 (11723275_at) / Fold change /veh LOC101060620 /// MAPK8IP1 (11723275_at) / RFU SPTSSB (11747773_x_at) / Fold change /veh SPTSSB (11747773_x_at) / RFU PRSS12 (11739890_at) / Fold change /veh PRSS12 (11739890_at) / RFU BIN1 (11741810_x_at) / Fold change /veh BIN1 (11741810_x_at) / RFU WNT11 (11732464_a_at) / Fold change /veh WNT11 (11732464_a_at) / RFU C10orf10 (11716521_a_at) / Fold change /veh C10orf10 (11716521_a_at) / RFU C5orf56 (11738089_at) / Fold change /veh C5orf56 (11738089_at) / RFU CYB561 (11721691_x_at) / Fold change /veh CYB561 (11721691_x_at) / RFU ANKRD19P (11752326_a_at) / Fold change /veh ANKRD19P (11752326_a_at) / RFU OR2T12 /// OR2T33 /// OR2T8 (11738714_s_at) / Fold change /veh OR2T12 /// OR2T33 /// OR2T8 (11738714_s_at) / RFU VCAN (11748164_a_at) / Fold change /veh VCAN (11748164_a_at) / RFU JSRP1 (11732532_at) / Fold change /veh JSRP1 (11732532_at) / RFU KRTAP10-11 (11738290_x_at) / Fold change /veh KRTAP10-11 (11738290_x_at) / RFU MYO3A (11730013_a_at) / Fold change /veh MYO3A (11730013_a_at) / RFU EBF3 (11725865_a_at) / Fold change /veh EBF3 (11725865_a_at) / RFU CAMK2N1 (11719241_x_at) / Fold change /veh CAMK2N1 (11719241_x_at) / RFU C5orf56 (11738088_a_at) / Fold change /veh C5orf56 (11738088_a_at) / RFU OLFML3 (11715873_a_at) / Fold change /veh OLFML3 (11715873_a_at) / RFU LOC100653217 /// NTM (11731650_a_at) / Fold change /veh LOC100653217 /// NTM (11731650_a_at) / RFU MAPK11 (11762145_a_at) / Fold change /veh MAPK11 (11762145_a_at) / RFU FIZ1 (11724087_x_at) / Fold change /veh FIZ1 (11724087_x_at) / RFU OASL (11726364_x_at) / Fold change /veh OASL (11726364_x_at) / RFU SOX15 (11748057_x_at) / Fold change /veh SOX15 (11748057_x_at) / RFU CD79A (11719716_a_at) / Fold change /veh CD79A (11719716_a_at) / RFU HIST1H1D (11736915_at) / Fold change /veh HIST1H1D (11736915_at) / RFU CASKIN2 (11723855_a_at) / Fold change /veh CASKIN2 (11723855_a_at) / RFU LOC730098 (11760151_x_at) / Fold change /veh LOC730098 (11760151_x_at) / RFU OR4N2 (11742367_at) / Fold change /veh OR4N2 (11742367_at) / RFU PRRT2 (11749266_a_at) / Fold change /veh PRRT2 (11749266_a_at) / RFU SNX32 (11753110_a_at) / Fold change /veh SNX32 (11753110_a_at) / RFU CDHR5 (11726645_a_at) / Fold change /veh CDHR5 (11726645_a_at) / RFU RCAN1 (11760418_a_at) / Fold change /veh RCAN1 (11760418_a_at) / RFU FAM167A (11723789_a_at) / Fold change /veh FAM167A (11723789_a_at) / RFU FAM26E (11764081_at) / Fold change /veh FAM26E (11764081_at) / RFU ISYNA1 (11749810_s_at) / Fold change /veh ISYNA1 (11749810_s_at) / RFU ACY1 (11761880_at) / Fold change /veh ACY1 (11761880_at) / RFU 11764098_at / Fold change /veh 11764098_at / RFU SAMD14 (11745864_x_at) / Fold change /veh SAMD14 (11745864_x_at) / RFU NPB (11741838_a_at) / Fold change /veh NPB (11741838_a_at) / RFU TMPRSS6 (11731388_a_at) / Fold change /veh TMPRSS6 (11731388_a_at) / RFU KRTAP10-2 (11738614_at) / Fold change /veh KRTAP10-2 (11738614_at) / RFU ARHGAP8 /// PRR5-ARHGAP8 (11727945_x_at) / Fold change /veh ARHGAP8 /// PRR5-ARHGAP8 (11727945_x_at) / RFU KRTAP5-7 /// NADSYN1 (11734609_at) / Fold change /veh KRTAP5-7 /// NADSYN1 (11734609_at) / RFU RASL12 (11751679_a_at) / Fold change /veh RASL12 (11751679_a_at) / RFU CDKN2B (11736163_a_at) / Fold change /veh CDKN2B (11736163_a_at) / RFU PRF1 (11729649_at) / Fold change /veh PRF1 (11729649_at) / RFU, ZNF638 /// ZNF638-IT1 / Fold change vs veh, ZNF638 /// ZNF638-IT1 / RFU, PANK3 / Fold change vs veh, PANK3 / RFU, SH3YL1 / Fold change vs veh, SH3YL1 / RFU, ZEB2 / Fold change vs veh, ZEB2 / RFU, NRIP1 / Fold change vs veh, NRIP1 / RFU, PTTG1IP / Fold change vs veh, PTTG1IP / RFU, CAPN2 / Fold change vs veh, CAPN2 / RFU, MED14 / Fold change vs veh, MED14 / RFU, SNORA58 / Fold change vs veh, SNORA58 / RFU, C1orf63 / Fold change vs veh, C1orf63 / RFU, LRRFIP1 / Fold change vs veh, LRRFIP1 / RFU, NDUFAF7 / Fold change vs veh, NDUFAF7 / RFU, SLC12A2 / Fold change vs veh, SLC12A2 / RFU, IBTK / Fold change vs veh, IBTK / RFU, ESF1 / Fold change vs veh, ESF1 / Fold change vs veh, TMEM50B / RFU, TAOK1 / Fold change vs veh, TAOK1 / RFU, ACBD3 / Fold change vs veh, ACBD3 / RFU, TMA16 / Fold change vs veh, TMA16 / RFU, RWDD3 / Fold change vs veh, RWDD3 / RFU, BCAT1 / Fold change vs veh, BCAT1 / RFU, EDEM3 / Fold change vs veh, EDEM3 / RFU, TMEM33 / Fold change vs veh, TMEM33 / RFU, WDR75 / Fold change vs veh, WDR75 / RFU, AHCTF1 / Fold change vs veh, AHCTF1 / RFU, TFRC / Fold change vs veh, TFRC / RFU, ZDHHC17 / Fold change vs veh, ZDHHC17 / RFU, NOM1 / Fold change vs veh, NOM1 / RFU, ARL8B / Fold change vs veh, ARL8B / RFU, ZBTB11 / Fold change vs veh, ZBTB11 / RFU, TAMM41 / Fold change vs veh, TAMM41 / RFU, KIAA1704 /// LOC100996395 / Fold change vs veh, KIAA1704 /// LOC100996395 / RFU, ING1 / Fold change vs veh, ING1 / RFU, TRMT61B / Fold change vs veh, TRMT61B / RFU, FUBP3 / Fold change vs veh, FUBP3 / RFU, TP53 / Fold change vs veh, TP53 / RFU, TNKS2 / Fold change vs veh, TNKS2 / RFU, ZFP14 / Fold change vs veh, ZFP14 / RFU, ACTR2 / Fold change vs veh, ACTR2 / RFU, PPP3R1 / Fold change vs veh, PPP3R1 / RFU, PIK3R1 / Fold change vs veh, PIK3R1 / RFU, HNRNPA1 / Fold change vs veh, HNRNPA1 / RFU, RNF170 / Fold change vs veh, RNF170 / RFU, ZNF28 / Fold change vs veh, ZNF28 / RFU, RNGTT / Fold change vs veh, RNGTT / RFU, OGT / Fold change vs veh, OGT / RFU, BRD1 / Fold change vs veh, BRD1 / RFU, MARS / Fold change vs veh, MARS / RFU, ZNF655 / Fold change vs veh, ZNF655 / RFU, FAHD1 / Fold change vs veh, FAHD1 / RFU, BDP1 / Fold change vs veh, BDP1 / RFU, LRRCC1 / Fold change vs veh, LRRCC1 / RFU, ARID1A / Fold change vs veh, ARID1A / RFU, ZNF146 / Fold change vs veh, ZNF146 / RFU, ZNF330 / Fold change vs veh, ZNF330 / RFU, GPN3 / Fold change vs veh, GPN3 / RFU, C9orf123 / Fold change vs veh, C9orf123 / RFU, N4BP2L2 / Fold change vs veh, N4BP2L2 / RFU, ARFIP1 / Fold change vs veh, ARFIP1 / RFU, FAM179B / Fold change vs veh, FAM179B / RFU, BCL10 / Fold change vs veh, BCL10 / RFU, UHRF1BP1L / Fold change vs veh, UHRF1BP1L / RFU, BET1 / Fold change vs veh, BET1 / RFU, CNOT2 / Fold change vs veh, CNOT2 / RFU, ZNF268 / Fold change vs veh, ZNF268 / Fold change vs veh, ZNF507 / RFU, DGCR2 / Fold change vs veh, DGCR2 / RFU, WDSUB1 / Fold change vs veh, WDSUB1 / Fold change vs veh, HSP90B1 /// MIR3652 / RFU, ADSS / Fold change vs veh, ADSS / RFU, GK / Fold change vs veh, GK / RFU, ZNF148 / Fold change vs veh, ZNF148 / RFU, TAF9 / Fold change vs veh, TAF9 / RFU, SLC1A5 / Fold change vs veh, SLC1A5 / RFU, SLMO2 / Fold change vs veh, SLMO2 / RFU, ABCC4 / Fold change vs veh, ABCC4 / RFU, LOC101060439 /// RAP1B / Fold change vs veh, LOC101060439 /// RAP1B / RFU, RFX7 / Fold change vs veh, RFX7 / RFU, GTPBP10 / Fold change vs veh, GTPBP10 / RFU, CNEP1R1 / Fold change vs veh, CNEP1R1 / RFU, BIVM-ERCC5 /// ERCC5 / Fold change vs veh, BIVM-ERCC5 /// ERCC5 / RFU, ILF3 / Fold change vs veh, ILF3 / RFU 11762660_at / Fold change /veh 11762660_at / RFU VCAN (11757783_s_at) / Fold change /veh VCAN (11757783_s_at) / RFU DDX43 (11728927_at) / Fold change /veh DDX43 (11728927_at) / RFU KRT8 (11758188_x_at) / Fold change /veh KRT8 (11758188_x_at) / RFU NKD1 (11759106_at) / Fold change /veh NKD1 (11759106_at) / RFU SRD5A1 (11742802_a_at) / Fold change /veh SRD5A1 (11742802_a_at) / RFU TPSAB1 /// TPSB2 (11721975_s_at) / Fold change /veh TPSAB1 /// TPSB2 (11721975_s_at) / RFU GSTM3 (11746129_a_at) / Fold change /veh GSTM3 (11746129_a_at) / RFU IL23R (11737362_x_at) / Fold change /veh IL23R (11737362_x_at) / RFU TMEM51 (11727254_a_at) / Fold change /veh TMEM51 (11727254_a_at) / RFU PIWIL2 (11732686_x_at) / Fold change /veh PIWIL2 (11732686_x_at) / RFU ORM1 (11744905_x_at) / Fold change /veh ORM1 (11744905_x_at) / RFU CCDC152 (11743942_at) / Fold change /veh CCDC152 (11743942_at) / RFU ECM1 (11717891_a_at) / Fold change /veh ECM1 (11717891_a_at) / RFU IL23R (11748794_a_at) / Fold change /veh IL23R (11748794_a_at) / RFU TNFAIP8L3 (11732012_x_at) / Fold change /veh TNFAIP8L3 (11732012_x_at) / RFU MBOAT4 (11741988_at) / Fold change /veh MBOAT4 (11741988_at) / RFU 11764193_at / Fold change /veh 11764193_at / RFU TMEM53 (11763286_at) / Fold change /veh TMEM53 (11763286_at) / RFU MAGEB2 (11727129_at) / Fold change /veh MAGEB2 (11727129_at) / RFU TMEM200A (11744735_a_at) / Fold change /veh TMEM200A (11744735_a_at) / RFU CCDC152 (11751479_a_at) / Fold change /veh CCDC152 (11751479_a_at) / RFU FAM211A (11726209_a_at) / Fold change /veh FAM211A (11726209_a_at) / RFU RGS16 (11746705_a_at) / Fold change /veh RGS16 (11746705_a_at) / RFU VCAN (11755009_s_at) / Fold change /veh VCAN (11755009_s_at) / RFU RHOB (11743442_s_at) / Fold change /veh RHOB (11743442_s_at) / RFU RGS16 (11720943_a_at) / Fold change /veh RGS16 (11720943_a_at) / RFU RGS16 (11720944_at) / Fold change /veh RGS16 (11720944_at) / RFU, VPS4B / Fold change vs veh, VPS4B / RFU, CREB1 / Fold change vs veh, CREB1 / RFU, DNAJC13 / Fold change vs veh, DNAJC13 / RFU, GNAQ / Fold change vs veh, GNAQ / RFU, CDK5R1 / Fold change vs veh, CDK5R1 / RFU, ZRANB3 / Fold change vs veh, ZRANB3 / RFU, CUL4A / Fold change vs veh, CUL4A / RFU, CCNY / Fold change vs veh, CCNY / RFU, UFL1 / Fold change vs veh, UFL1 / RFU, COG3 / Fold change vs veh, COG3 / RFU, DIAPH2 / Fold change vs veh, DIAPH2 / RFU, SKA2 / Fold change vs veh, SKA2 / RFU, AFF3 / Fold change vs veh, AFF3 / RFU, LMF1 / Fold change vs veh, LMF1 / RFU, IPO11 / Fold change vs veh, IPO11 / RFU, DFFB / Fold change vs veh, DFFB / RFU, FOXP1 / Fold change vs veh, FOXP1 / RFU, CARD8 / Fold change vs veh, CARD8 / RFU, STRN3 / Fold change vs veh, STRN3 / RFU, ADK / Fold change vs veh, ADK / RFU, RASSF2 / Fold change vs veh, RASSF2 / RFU, WIPF1 / Fold change vs veh, WIPF1 / RFU, LARP1B / Fold change vs veh, LARP1B / RFU, RASA1 / Fold change vs veh, RASA1 / RFU, RB1 / Fold change vs veh, RB1 / RFU, PPFIA1 / Fold change vs veh, PPFIA1 / RFU, MAT2A / Fold change vs veh, MAT2A / RFU, CCT5 / Fold change vs veh, CCT5 / RFU, WDR92 / Fold change vs veh, WDR92 / RFU, CUX1 / Fold change vs veh, CUX1 / RFU, TTC7A / Fold change vs veh, TTC7A / RFU, TMEM135 / Fold change vs veh, TMEM135 / RFU, DEPTOR / Fold change vs veh, DEPTOR / RFU, CPM / Fold change vs veh, CPM / RFU, DNAJB6 / Fold change vs veh, DNAJB6 / RFU, CACNA2D3 / Fold change vs veh, CACNA2D3 / RFU, DTX4 / Fold change vs veh, DTX4 / RFU, TFCP2 / Fold change vs veh, TFCP2 / RFU, GMCL1 /// GMCL1P1 / Fold change vs veh, GMCL1 /// GMCL1P1 / RFU, AEBP2 / Fold change vs veh, AEBP2 / RFU, SNHG1 /// SNORD22 /// SNORD25 /// SNORD26 /// SNORD27 /// SNORD28 /// SNORD29 /// SNORD31 / Fold change vs veh, SNHG1 /// SNORD22 /// SNORD25 /// SNORD26 /// SNORD27 /// SNORD28 /// SNORD29 /// SNORD31 / Fold change (Aza/veh), C12orf56 (ProbeSet 11735607_a_at) / Fold change (ACY-1035/veh), C12orf56 (ProbeSet 11735607_a_at) / Fold change (Aza/veh), FGFR1OP (ProbeSet 11751329_s_at) / Fold change (ACY-1035/veh), FGFR1OP (ProbeSet 11751329_s_at) / Fold change (Aza/veh), VPS36 (ProbeSet 11739960_a_at) / Fold change (ACY-1035/veh), VPS36 (ProbeSet 11739960_a_at) / RFU SYPL1 (11715823_x_at) / Fold change /veh SYPL1 (11715823_x_at) / RFU IGFBP7 (11715501_s_at) / Fold change /veh IGFBP7 (11715501_s_at) / RFU REEP3 (11722064_at) / Fold change /veh REEP3 (11722064_at) / RFU IGLL1 (11728026_x_at) / Fold change /veh IGLL1 (11728026_x_at): dose or concentration left out as unconfirmed", "settings": "MV-4-11 cells, 48 hours"}
{"smiles": "Nc1ccc(-c2cccs2)cc1NC(=O)c1ccc2c(c1)cc(C1CC1)n2CCN1CCOCC1", "note": "[ACY-1035]", "values": [{"measurement": "RFU CCDC152 (11751479_a_at)", "result": 4.13, "unit": "RFU"}]}
